Data on 29 molecules can be found in PubChem BioAssay (NCI).

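How tested: cells in 96-well plates exposed to compound for 48 hours at five concentrations. TGI is the concentration that stops growth completely.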 A value given as a limit tells only on which side of the number the result lay.

The first test deals with DMS 273 small cell lung. Description: NCI tumour cell line growth inhibition, 48 h.
Molecule `COC(OC)C(C)CC(=O)N(C)C` (stereo not given) showed a TGI greater than 100 µM.
The same measure, in the same setting: then `O=S1(=O)OCCOS(=O)(=O)C1Br`, with greater than 100 µM.
On the same count and under the same terms, under `CC(C)=Cc1cc(C(=O)Nc2ccc(Cl)c(Cl)c2)nc(N)n1` stands greater than 100 µM.
Still for that read-out and setting: under `C#CC1(O)CCC2C3CCc4cc(Oc5nc(F)nc(-c6c7ccccc7c7sc8ccccc8n67)n5)ccc4C3CC[C@@]21C` (stereo not given in full) stands greater than 100 µM.
Regarding `C[Si](C)(C)C1(Sc2ccccc2)SCCCS1`, the TGI is greater than 100 µM.
On the same count and under the same terms, then `CC(C)(C)OC(=O)N[C@H]1CC2(C=C(Cl)C(=O)C(Cl)=C2)OC1=O`, with 32.9 µM; and `O=c1cc(-c2ccccc2)oc2cc(OCCCOc3ccc4c(=O)cc(-c5ccccc5)oc4c3)ccc12`, with greater than 100 µM.

The test system of the next test is HOP-18 NSCLC. The experiment in a line: NCI tumour cell line growth inhibition, 48 h.
On to `CCOC(=O)NC(=O)c1cn(CCCO)c(=O)[nH]c1=O`, for which the TGI was greater than 100 µM.
Same read-out and setting: then `CCN1c2ccccc2C(C(SC)S(=O)(=O)c2ccc(C)cc2)c2c1[nH]c(=O)n(C)c2=O` (stereo not given), with greater than 100 µM; and `Nc1ncnc2c1nnn2C1OC(CO)C(O)C1O` (stereo not given), with 11.8 µM.
On the same count and under the same terms, under `CSc1nc(NC2OCC(OC(C)=O)C(OC(C)=O)C2OC(C)=O)c(N=CC=Nc2c(NC3OCC(OC(C)=O)C(OC(C)=O)C3OC(C)=O)nc(SC)[nH]c2=O)c(=O)[nH]1` (stereo not given) stands greater than 100 µM; under `Cn1cnc([N+](=O)[O-])c1Sc1nc2ccccc2[nH]1`, greater than 100 µM.
Same read-out and setting: under `COc1cc2c(c(OC)c1OC)-c1ccc(OC)c(=O)cc1C(NC(=O)c1ccc(N=[N+]=[N-])cc1)CC2` (stereo not given) stands greater than 100 µM.
`CCCCCCCCC/C=C1\CCC(CN2CCOCC2)C1=O` (stereo not given) came in with a TGI of 10.7 µM.
Molecule `CCCCCCN(CCCCCC)C(=O)Cc1c2n(c3ccccc13)Cc1ccccc1-2` showed a TGI greater than 100 µM.
The molecule `C/C(=N\NC(=S)NC(CCC(=O)O)C(=O)O)c1ccccn1` (stereo not given) had a TGI greater than 100 µM.
Still for that read-out and setting: under `OCc1ccc(-c2ccc(-c3ccc(CO)s3)o2)s1` stands 32.6 µM; under `c1ccc(COc2cccc3ccc[n+](Cc4ccccc4)c23)cc1`, 15.4 µM.
The molecule `CC1=CC(O)(c2ccc(-c3ccccc3Cl)cc2)OC1=O` (stereo not given) registered a TGI greater than 100 µM.
Still for that read-out and setting: under `CCc1cc(Cc2cc(CC)c(NC(=O)C(=O)Cc3ccccn3)c(CC)c2Cl)c(Cl)c(CC)c1NC(=O)C(=O)Cc1ccccn1` stands greater than 100 µM; under `CC(C)=Cc1cc(C(=O)Nc2ccc(Cl)c(Cl)c2)nc(N)n1`, greater than 100 µM; under `CC(=O)/C(=C\c1cccc([N+](=O)[O-])c1)C(=O)Nc1ccccc1C`, greater than 100 µM.
Turning to `Clc1ccc(C(c2ccc(Cl)cc2)c2ccccn2)cc1`, the TGI worked out at 46.6 µM.
Still for that read-out and setting: under `CC(C)(C)OC(=O)N[C@H]1CC2(C=C(Cl)C(=O)C(Cl)=C2)OC1=O` stands 30.4 µM.
As to `O=c1cc(-c2ccccc2)oc2cc(OCCCOc3ccc4c(=O)cc(-c5ccccc5)oc4c3)ccc12`, the TGI is greater than 100 µM.

A further test has as its system KM20L2 colon. The experiment in a line: NCI tumour cell line growth inhibition, 48 h.
`CCOC(=O)NC(=O)c1cn(CCCO)c(=O)[nH]c1=O` registered a TGI greater than 100 µM.
On the same count and under the same terms, under `COc1ccc(S(=O)(=O)NNS(C)(=O)=O)cc1` stands greater than 100 µM.
The same measure, in the same setting: then `Nc1ncnc2c1nnn2C1OC(CO)C(O)C1O` (stereo not given), with greater than 74.3 µM; and `CC(=O)OC1COC(n2ccc3cc(Br)c([N+](=O)[O-])cc32)C(OC(C)=O)C1OC(C)=O` (stereo not given), with greater than 100 µM.
The same measure, in the same setting: then `CSc1nc(NC2OCC(OC(C)=O)C(OC(C)=O)C2OC(C)=O)c(N=CC=Nc2c(NC3OCC(OC(C)=O)C(OC(C)=O)C3OC(C)=O)nc(SC)[nH]c2=O)c(=O)[nH]1` (stereo not given), with greater than 100 µM.
Take `Cn1cnc([N+](=O)[O-])c1Sc1nc2ccccc2[nH]1`: the TGI amounted to 61.5 µM.
On the same count and under the same terms, then `COc1cc2c(c(OC)c1OC)-c1ccc(OC)c(=O)cc1C(NC(=O)c1ccc(N=[N+]=[N-])cc1)CC2` (stereo not given), with 0.0351 µM; and `CCCCCCCCC/C=C1\CCC(CN2CCOCC2)C1=O` (stereo not given), with 20.5 µM; and `CCCCCCN(CCCCCC)C(=O)Cc1c2n(c3ccccc13)Cc1ccccc1-2`, with greater than 100 µM.
Same read-out and setting: then `C/C(=N\NC(=S)NC(CCC(=O)O)C(=O)O)c1ccccn1` (stereo not given), with greater than 100 µM; and `O=C(/C=C\c1ccc(Cl)c(Cl)c1)c1ccc(Cl)cc1Cl`, with 28 µM.
With `CCOC(=O)C(=C=C=C(c1ccccc1)c1ccccc1)C(=O)OCC`, the TGI was determined as 45.2 µM.
Same read-out and setting: then `OCc1ccc(-c2ccc(-c3ccc(CO)s3)o2)s1`, with 1.19 µM; and `c1ccc(COc2cccc3ccc[n+](Cc4ccccc4)c23)cc1`, with 93.8 µM; and `CN(C)c1ccc(/C=C(\NC(=O)c2ccccc2)c2nc3ncncc3[nH]2)cc1`, with greater than 100 µM.
Still for that read-out and setting: under `CC1=CC(O)(c2ccc(-c3ccccc3Cl)cc2)OC1=O` (stereo not given) stands greater than 100 µM.
Still for that read-out and setting: under `CCOC(=O)CC(=O)ON(C)C(C)=O` stands greater than 100 µM.
In the case of `CCc1cc(Cc2cc(CC)c(NC(=O)C(=O)Cc3ccccn3)c(CC)c2Cl)c(Cl)c(CC)c1NC(=O)C(=O)Cc1ccccn1`, the TGI was greater than 100 µM.
Molecule `CC(C)OP(=O)(OC(C)C)C(=NCCN=C(NNc1ccc([N+](=O)[O-])cc1)P(=O)(OC(C)C)OC(C)C)NNc1ccc([N+](=O)[O-])cc1` gave a TGI greater than 100 µM.
In the case of `COC(OC)C(C)CC(=O)N(C)C` (stereo not given), the TGI was greater than 100 µM.
Still for that read-out and setting: under `CC(C)=Cc1cc(C(=O)Nc2ccc(Cl)c(Cl)c2)nc(N)n1` stands greater than 100 µM.
Still for that read-out and setting: then `C#CC1(O)CCC2C3CCc4cc(Oc5nc(F)nc(-c6c7ccccc7c7sc8ccccc8n67)n5)ccc4C3CC[C@@]21C` (stereo not given in full), with greater than 100 µM.
The same measure, in the same setting: then `CC(=O)/C(=C\c1cccc([N+](=O)[O-])c1)C(=O)Nc1ccccc1C`, with greater than 100 µM; and `Clc1ccc(C(c2ccc(Cl)cc2)c2ccccn2)cc1`, with 29.8 µM; and `CC(C)(C)OC(=O)N[C@H]1CC2(C=C(Cl)C(=O)C(Cl)=C2)OC1=O`, with 39.4 µM.
